Source: US10072003B2, “Tetrahydronaphthyridine derivatives as mGluR2-negative allosteric modulators, compositions, and their use” (Merck Sharp & Dohme Corp., priority 2014, dated 2018)

These compounds were tested against recombinant human mGluR2 (Homo sapiens (Human), UniProt Q14416) (assay: FLIPR Ca2+ mobilization antagonist assay in CHO dhfr- cells expressing human mGluR2 and Gα16). Conditions: antagonist response after addition of 2,500 nM glutamate, Fluo-4 AM, FLIPR384.
Assay type: cell-based
Protocol: Antagonist constants are determined as follows. The compounds of the invention were tested in a fluorescence laser imaging plate reader based assay. This assay is a common functional assay to monitor Ca2+ mobilization in whole cells expressing recombinant receptor coupled with a promiscuous G-protein. CHO dhfr-cells stably expressing recombinant human mGluR2 and Gα16 loaded with Fluo-4 AM (Invitrogen, Carlsbad Calif.) were treated with various concentrations of antagonists of compounds and the Ca2+ response was monitored on a FLIPR384 (Molecular Devices, Sunnydale Calif.) for agonist activity. Then 2,500 nM glutamate was added and the antagonist response was monitored. The maximum calcium response at each concentration of compound for agonist or antagonist were plotted as dose responses and the curves were fitted with a four parameter logistic equation giving IC50 and Hill coefficient using the iterative non linear curve fitting software ADA (Merck & Co). Data in the following table represent activities in the antagonist assay.

recombinant human mGluR2, sequence (Q14416 19-872): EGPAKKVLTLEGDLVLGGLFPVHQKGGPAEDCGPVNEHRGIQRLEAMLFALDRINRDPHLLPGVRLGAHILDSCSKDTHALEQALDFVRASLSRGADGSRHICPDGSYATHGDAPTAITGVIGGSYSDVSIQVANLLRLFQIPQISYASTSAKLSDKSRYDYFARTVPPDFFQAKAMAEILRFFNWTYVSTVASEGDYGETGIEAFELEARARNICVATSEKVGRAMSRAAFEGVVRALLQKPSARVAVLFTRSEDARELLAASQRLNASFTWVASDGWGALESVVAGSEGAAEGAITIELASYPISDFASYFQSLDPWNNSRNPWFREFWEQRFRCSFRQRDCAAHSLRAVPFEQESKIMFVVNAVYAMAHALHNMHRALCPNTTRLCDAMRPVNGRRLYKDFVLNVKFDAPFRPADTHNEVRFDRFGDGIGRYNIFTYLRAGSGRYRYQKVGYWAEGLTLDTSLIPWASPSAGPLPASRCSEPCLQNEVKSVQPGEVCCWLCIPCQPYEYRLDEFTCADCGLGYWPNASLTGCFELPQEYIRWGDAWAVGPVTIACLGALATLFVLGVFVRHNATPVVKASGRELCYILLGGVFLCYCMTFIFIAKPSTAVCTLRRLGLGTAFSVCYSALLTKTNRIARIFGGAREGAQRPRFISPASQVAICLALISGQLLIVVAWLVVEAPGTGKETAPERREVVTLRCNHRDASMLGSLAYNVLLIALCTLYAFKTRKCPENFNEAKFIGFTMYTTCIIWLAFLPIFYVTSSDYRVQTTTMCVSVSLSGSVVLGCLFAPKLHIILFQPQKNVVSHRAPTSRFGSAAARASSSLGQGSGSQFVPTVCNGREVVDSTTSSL

SMILES | IC50 [nM]
NC(=O)c1cc(-c2cnc(C(F)F)s2)c2c(n1)CN(Cc1ccnc(OC(F)F)c1)CC2 [Example 2-15, 7-{[2-(difluoromethoxy)pyridin-4-yl]methyl}-4-[2-(difluoromethyl)-1,3-thiazol-5-yl]-5,6,7,8-tetrahydro-1,7-naphthyridine-2-carboxamide] | 45.2
NC(=O)c1cc(-n2ccc(C(F)(F)F)n2)c2c(n1)CN(Cc1ccnc(C(F)(F)F)c1)CC2 [Example 2-19, 4-[3-(trifluoromethyl)-1H-pyrazol-1-yl]-7-{[2-(trifluoromethyl)pyridin-4-yl]methyl}-5,6,7,8-tetrahydro-1,7-naphthyridine-2-carboxamide] | 61.6
CC1(C)CC(CN2CCc3c(-c4ccc(F)cc4F)cc(C(N)=O)nc3C2)CCO1 (single isomer, unassigned) [Example 1-11A, (R) or (S)-4-(2,4-difluorophenyl)-7-[(2,2-dimethyltetrahydro-2H-pyran-4-yl)methyl]-5,6,7,8-tetrahydro-1,7-naphthyridine-2-carboxamide] | 30.1
NC(=O)c1cc(-n2cc(C(F)(F)F)cn2)c2c(n1)CN(Cc1ccnc(C(F)(F)F)c1)CC2 [Example 5-10, 4-[4-(trifluoromethyl)-1H-pyrazol-1-yl]-7-{[2-(trifluoromethyl)pyridin-4-yl]methyl}-5,6,7,8-tetrahydro-1,7-naphthyridine-2-carboxamide] | 32
COC1CCN(c2cc(C(N)=O)nc3c2CCN(Cc2ccnn2C(C)C)C3C)CC1 (single isomer, unassigned) [Example 1-22, (S) or (R)-4-(4-methoxypiperidin-1-yl)-8-methyl-7-{[1-(1-methylethyl)-1H-pyrazol-5-yl]methyl}-5,6,7,8-tetrahydro-1,7-naphthyridine-2-carboxamide] | 50.6
Cc1ncc(-c2cc(C(N)=O)nc3c2CCN(Cc2ccnn2C)C3)s1 [Example 6-4, 7-[(1-methyl-1H-pyrazol-5-yl)methyl]-4-(2-methyl-1,3-thiazol-5-yl)-5,6,7,8-tetrahydro-1,7-naphthyridine-2-carboxamide] | 119
NC(=O)c1cc(C2=CCC3(CC2)CC3)c2c(n1)CN(Cc1ccnc(C(F)(F)F)c1)CC2 [Example 4-2, 4-spiro[2.5]oct-5-en-6-yl-7-{[2-(trifluoromethyl)pyridin-4-yl]methyl}-5,6,7,8-tetrahydro-1,7-naphthyridine-2-carboxamide] | 49.7
CC(c1ccnn1C)N1CCc2c(-c3ccc(F)cc3F)cc(C(N)=O)nc2C1 (single isomer, unassigned) [Example 7-4, (S) or (R)-4-(2,4-difluorophenyl)-7-[(1S)-1-(1-methyl-1H-pyrazol-5-yl)ethyl]-5,6,7,8-tetrahydro-1,7-naphthyridine-2-carboxamide] | 20.1

Continued, values first:

IC50 [nM] | SMILES
9.7 | Cc1nc(CN2CCc3c(-c4ccc(Cl)cc4F)cc(C(N)=O)nc3C2)no1 [Example 9-2, 4-(4-chloro-2-fluorophenyl)-7-[(5-methyl-1,2,4-oxadiazol-3-yl)methyl]-5,6,7,8-tetrahydro-1,7-naphthyridine-2-carboxamide]
14.2 | COc1nccc(CN2CCc3c(-c4ccc(Cl)cc4F)cc(C(N)=O)nc3C2)n1 [Example 9-3, 4-(4-chloro-2-fluorophenyl)-7-[(2-methoxypyrimidin-4-yl)methyl]-5,6,7,8-tetrahydro-1,7-naphthyridine-2-carboxamide]
13.2 | NC(=O)c1cc(-c2c(F)cc(F)cc2F)c2c(n1)CN(Cc1ccnc(C(F)(F)F)n1)CC2 [Example 11-6, 7-{[2-(trifluoromethyl)pyrimidin-4-yl]methyl}-4-(2,4,6-trifluorophenyl)-5,6,7,8-tetrahydro-1,7-naphthyridine-2-carboxamide]
19.7 | NC(=O)c1cc(-c2ccccc2Cl)c2c(n1)CN(Cc1ccnc(C(F)(F)F)n1)CC2 [Example 11-4, 4-(2-chlorophenyl)-7-{[2-(trifluoromethyl)pyrimidin-4-yl]methyl}-5,6,7,8-tetrahydro-1,7-naphthyridine-2-carboxamide]
